Assay results published in US20220117266A1, “NICKEL CHELATION THERAPY” (priority 2019, published 2022).
Read-outs that look alike come from different tables or passages of the source.

Tests used:
[1] = system: C. jejuni 81-176; assay: Growth inhibition, liquid 96-well checkerboard (OD600, MIC, MBC); assay type: cell-based, Campylobacter jejuni; conditions: 24 h
Protocol: Growth inhibition assays: liquid (96-well) plates experiments. This type of experiment can only be conducted with C. jejuni since the gas requirement for C. concisus (H2-enriched microaerobic) is not compatible with the use of 96-well plates. C. jejuni cells were grown as described above, harvested, and resuspended in sterile NaCl (8 g/L) to an OD600 of 0.1, corresponding approximately to 5×10^8 to 1×10^9 cells/mL. […] Wells were serially (2-fold) diluted in each direction (horizontal and vertical) to introduce all combinations. Wells with no DMG or metal compounds served as (positive) growth controls, and wells with no bacteria served as background (negative growth) controls. A typical protocol and loading plan are described in Table 7. The starting inoculum was at OD600 of 0.05, which corresponds approximately to 2.5×10^8 cells/mL to 5×10^8 cells/mL. After 24 hours incubation under microaerobic conditions at 37° C., OD600 was recorded using a 96 well-plate reader (Microtek). […] Resulting growth (or lack of growth) was examined after overnight culturing; the lowest concentration that inhibits 99.9% of the original culture was defined as MBC. MIC and MBC were determined based on tests (plates) done in triplicate.

[2] = target: Aβ40 peptide (Homo sapiens, UniProt P05067); assay: Thioflavin T (ThT)-based Aβ40 aggregation assay; assay type: biochemical; design: purchased rPeptides, Watkinsville, Ga., USA kit #A-1180-1; host or cells: E. coli; conditions: for remaining activity at 100 µM: DMG 100 μM; for remaining activity at 100 µM / remaining activity at 500 µM / remaining activity at 1000 µM: read-out: Relative Aβ40 aggregation rate (% control); for remaining activity at 500 µM: DMG 500 μM; for remaining activity at 1000 µM: DMG 1000 μM
Aβ40 peptide, sequence (P05067 672-711): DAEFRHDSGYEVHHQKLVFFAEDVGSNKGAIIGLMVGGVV
Protocol: Amyloid Beta aggregation. […] This kit contained human recombinant Aβ40 peptide (>97% pure, as determined by manufacturer's HPLC) with the following sequence […] (SEQ ID NO:1), as provided by the manufacturer. […] The aggregation of Aβ40, was shown by the increase in fluorescence (lex=440 nm/lem=485 nm) over time, was followed for 60 min or 120 min, with reading every three or five min, using a Synergy MX reader (Biotek, Winooski, Vt.). A ThT-only background control (no Aβ40 peptide) was included in triplicate in all experiments and subtracted from all readings. The aggregation rate, defined as the increase in fluorescence per min (RFU/min), was calculated by using the formula [A(440,485) at T40min)−A(440,485) at T20min]/20.

[3] = system: Helicobacter pylori 43504; assay: Antibiofilm assay on established biofilm; assay type: cell-based; conditions: DMG added for additional 24 hours
Protocol: Antibiofilm assay. H. pylori culture at OD600=0.15 was added to a non-tissue culture treated polystyrene 96 well plate (Falcon) and incubated at 37° C. micro-aerobically without shaking for 48 hours. After the initial incubation, the supernatant was removed from the wells and BHI+0.4% β-cyclodextran was added back to the wells with or without Na2DMG at various concentrations. The plate was then incubated an additional 24 hours. Then, the crystal violet biofilm assay was performed as above.

[4] = experiment B, no supplemental metal
[5] = experiment C, no supplemental metal

With `CC(=NO)C(C)=NO` [DMG, dimethylglyoxime] the OD600 ([1]; DMG 0.062 mM + CuSO4 0 uM) was 0.31, the OD600 ([1]; DMG 0.062 mM + CuSO4 2 uM) was 0.37 and the OD600 ([1]; DMG 0.062 mM + CuSO4 4 uM) was 0.31. It also gave an OD600 ([1]; DMG 0.062 mM + CuSO4 8 uM) of 0.33, an OD600 ([1]; DMG 0.062 mM + CuSO4 16 uM) of 0.34 and an OD600 ([1]; DMG 0.062 mM + CuSO4 32 uM) of 0.24. The OD600 ([1]; DMG 0.062 mM + CuSO4 64 uM) was 0.22, the OD600 ([1]; DMG 0.062 mM + CuSO4 128 uM) was 0.24 and the OD600 ([1]; DMG 0.062 mM + CuSO4 256 uM) was 0.35. It also gave an OD600 ([1]; DMG 0.062 mM + CuSO4 512 uM) of 0.34, an OD600 ([1]; DMG 0.062 mM + CuSO4 1024 uM) of 0.47 and an OD600 ([1]; DMG 0.125 mM + CuSO4 0 uM) of 0.25. It also gave an OD600 ([1]; DMG 0.125 mM + CuSO4 2 uM) of 0.31, an OD600 ([1]; DMG 0.125 mM + CuSO4 4 uM) of 0.27 and an OD600 ([1]; DMG 0.125 mM + CuSO4 8 uM) of 0.31. For the same compound, the OD600 ([1]; DMG 0.125 mM + CuSO4 16 uM) was 0.33, the OD600 ([1]; DMG 0.125 mM + CuSO4 32 uM) was 0.26 and the OD600 ([1]; DMG 0.125 mM + CuSO4 64 uM) was 0.23. It also gave an OD600 ([1]; DMG 0.125 mM + CuSO4 128 uM) of 0.24, an OD600 ([1]; DMG 0.125 mM + CuSO4 256 uM) of 0.27 and an OD600 ([1]; DMG 0.125 mM + CuSO4 512 uM) of 0.34. For the same compound, the OD600 ([1]; DMG 0.125 mM + CuSO4 1024 uM) was 0.47, the OD600 ([1]; DMG 0.25 mM + CuSO4 0 uM) was 0.26 and the OD600 ([1]; DMG 0.25 mM + CuSO4 2 uM) was 0.31. The OD600 ([1]; DMG 0.25 mM + CuSO4 4 uM) was 0.24, the OD600 ([1]; DMG 0.25 mM + CuSO4 8 uM) was 0.37 and the OD600 ([1]; DMG 0.25 mM + CuSO4 16 uM) was 0.33. The OD600 ([1]; DMG 0.25 mM + CuSO4 32 uM) was 0.25, the OD600 ([1]; DMG 0.25 mM + CuSO4 64 uM) was 0.22 and the OD600 ([1]; DMG 0.25 mM + CuSO4 128 uM) was 0.24. It also gave an OD600 ([1]; DMG 0.25 mM + CuSO4 256 uM) of 0.24, an OD600 ([1]; DMG 0.25 mM + CuSO4 512 uM) of 0.27 and an OD600 ([1]; DMG 0.25 mM + CuSO4 1024 uM) of 0.30. It also gave an OD600 ([1]; DMG 0.5 mM + CuSO4 0 uM) of 0.22, an OD600 ([1]; DMG 0.5 mM + CuSO4 2 uM) of 0.31 and an OD600 ([1]; DMG 0.5 mM + CuSO4 4 uM) of 0.25. The OD600 ([1]; DMG 0.5 mM + CuSO4 8 uM) was 0.23, the OD600 ([1]; DMG 0.5 mM + CuSO4 16 uM) was 0.34 and the OD600 ([1]; DMG 0.5 mM + CuSO4 32 uM) was 0.21. For the same compound, the OD600 ([1]; DMG 0.5 mM + CuSO4 64 uM) was 0.19, the OD600 ([1]; DMG 0.5 mM + CuSO4 128 uM) was 0.20 and the OD600 ([1]; DMG 0.5 mM + CuSO4 256 uM) was 0.29. The OD600 ([1]; DMG 0.5 mM + CuSO4 512 uM) was 0.14, the OD600 ([1]; DMG 0.5 mM + CuSO4 1024 uM) was 0.09 and the OD600 ([1]; DMG 1 mM + CuSO4 0 uM) was 0.20. For the same compound, the OD600 ([1]; DMG 1 mM + CuSO4 2 uM) was 0.27, the OD600 ([1]; DMG 1 mM + CuSO4 4 uM) was 0.23 and the OD600 ([1]; DMG 1 mM + CuSO4 8 uM) was 0.21. For the same compound, the OD600 ([1]; DMG 1 mM + CuSO4 16 uM) was 0.37, the OD600 ([1]; DMG 1 mM + CuSO4 32 uM) was 0.24 and the OD600 ([1]; DMG 1 mM + CuSO4 64 uM) was 0.19. It also gave an OD600 ([1]; DMG 1 mM + CuSO4 128 uM) of 0.10, an OD600 ([1]; DMG 1 mM + CuSO4 256 uM) of 0.02 and an OD600 ([1]; DMG 1 mM + CuSO4 512 uM) of 0.02. For the same compound, the OD600 ([1]; DMG 1 mM + CuSO4 1024 uM) was 0.04, the OD600 ([1]; DMG 2 mM + CuSO4 0 uM) was 0.24 and the OD600 ([1]; DMG 2 mM + CuSO4 2 uM) was 0.34. It also gave an OD600 ([1]; DMG 2 mM + CuSO4 4 uM) of 0.25, an OD600 ([1]; DMG 2 mM + CuSO4 8 uM) of 0.26 and an OD600 ([1]; DMG 2 mM + CuSO4 16 uM) of 0.24. For the same compound, the OD600 ([1]; DMG 2 mM + CuSO4 32 uM) was 0.17, the OD600 ([1]; DMG 2 mM + CuSO4 64 uM) was 0.01 and the OD600 ([1]; DMG 2 mM + CuSO4 128 uM) was 0.01. The OD600 ([1]; DMG 2 mM + CuSO4 256 uM) was 0.01, the OD600 ([1]; DMG 2 mM + CuSO4 512 uM) was 0.02 and the OD600 ([1]; DMG 2 mM + CuSO4 1024 uM) was 0.04. The OD600 ([1]; DMG 4 mM + CuSO4 0 uM) was 0.19, the OD600 ([1]; DMG 4 mM + CuSO4 2 uM) was 0.26 and the OD600 ([1]; DMG 4 mM + CuSO4 4 uM) was 0.15. The OD600 ([1]; DMG 4 mM + CuSO4 8 uM) was 0.04, the OD600 ([1]; DMG 4 mM + CuSO4 16 uM) was 0.00 and the OD600 ([1]; DMG 4 mM + CuSO4 32 uM) was 0.00. For the same compound, the OD600 ([1]; DMG 4 mM + CuSO4 64 uM) was 0.01, the OD600 ([1]; DMG 4 mM + CuSO4 128 uM) was 0.01 and the OD600 ([1]; DMG 4 mM + CuSO4 256 uM) was 0.02. For the same compound, the OD600 ([1]; DMG 4 mM + CuSO4 512 uM) was 0.02, the OD600 ([1]; DMG 4 mM + CuSO4 1024 uM) was 0.04 and the “inhibition of Aβ40 aggregation” value ([2]; 500 mM or 1000 mM DMG (so in the source), no supplemented metal) was “partial or full inhibition”. For the same compound, the remaining activity at 100 µM ([2]; experiment A, Cu 10 μM) was 54 ± 12%, the remaining activity at 100 µM ([2]; experiment A, Ni 10 μM) was 58 ± 11% and the remaining activity at 100 µM ([2]; experiment A, Zn 10 μM) was 457 ± 39%. The remaining activity at 100 µM ([2]; experiment A, no supplemental metal) was 33 ± 2%, the remaining activity at 100 µM ([2]; experiment B, Ni 100 μM) was 410 ± 91% and the remaining activity at 100 µM [2, 4] was 15 ± 14%. For the same compound, the remaining activity at 500 µM ([2]; experiment B, Ni 100 μM) was < 1%, the remaining activity at 500 µM ([2]; experiment B, Zn 100 μM) was 833 ± 156% and the remaining activity at 500 µM [2, 4] was < 1%. For the same compound, the remaining activity at 1000 µM ([2]; experiment B, Ni 100 μM) was < 1%, the remaining activity at 1000 µM ([2]; experiment B, Zn 100 μM) was 328 ± 63% and the remaining activity at 1000 µM [2, 4] was < 1%. For the same compound, the remaining activity at 100 µM ([2]; experiment C, Cu 100 μM) was 66 ± 15%, the remaining activity at 100 µM [2, 5] was 48 ± 8% and the remaining activity at 500 µM ([2]; experiment C, Cu 100 μM) was 49 ± 8%. For the same compound, the remaining activity at 500 µM [2, 5] was 15 ± 5%, the remaining activity at 1000 µM ([2]; experiment C, Cu 100 μM) was 40 ± 3% and the remaining activity at 1000 µM [2, 5] was 21 ± 10%. The “inhibition of Aβ40 aggregation” value ([2]; increasing amounts of DMG in presence of 100 mM Cu^2+ or Zn^2+ (so in the source)) was “partial inhibition”, the “inhibition of Aβ40 aggregation” value ([2]; increasing amounts of DMG in presence of 100 mM Ni^2+ (so in the source)) was “Complete inhibition” and the “Aβ40 peptide aggregation under all pHs tested” value ([2]; pH 6.5, 7.5 or 8.5, 25 mM Aβ40, CuSO4 25 mM, ZnSO4 10 mM or DMG 100 mM (so in the source)) was “negligible”. The “effect on established (48 hours of growth) biofilm” value [3] was “able to counteract”.
